Reference: patent US8633322B2, “Alkynyl derivatives useful as DPP-1 inhibitors” (Janssen Pharmaceutica NV, priority 2009, dated 2014)

Target: T1, recombinant human DPP-1 (Cathepsin C) (Homo sapiens, UniProt P53634)
T1 construct: made in house
Assay: DPP-1 Inhibition Assay (In Vitro), fluorogenic substrate GR-AMC
Format: biochemical
Conditions: room temperature; 0.15 nM DPP-1, 10 uM GR-AMC, pH 7.0; average where tested multiple times
Procedure: Test compounds were assessed for DPP-1 (Cathepsin C) inhibitory activity using a fluorogenic substrate, GR-AMC (Glycine-Arginine-amino-4-methylcoumarin, Bachem, 1-1215). The amount of amino-methylcoumarin released is proportional to the DPP-1 activity, and the reaction is monitored kinetically with a Molecular Devices plate reader using black 96-well plates.
All compounds were tested under room temperature conditions. The assay buffer consisted of 50 mM HEPES, pH 7.0, 100 mM NaCl, 2 mM glutathione (GSH), and 0.002% TWEEN 20. GSH and TWEEN 20 were added to the buffer fresh daily. Just prior to use, an in-house preparation of recombinant human DPP-1 (240 μM stock, MW 49.6 kD) was diluted 600-fold in assay buffer containing fresh 2 mM dithiothreitol (DTT) to activate the enzyme, then diluted into assay buffer (without DTT) 133-fold for a DPP-1 working solution of 3 nM. Test compounds were diluted in DMSO for 20× their final assay concentrations.
Additions to a 96-well black Costar 3915 plates were as follows: 90 μL of 11 μM GR-AMC, 5 μL test compound (followed by mixing), and 5 μL 3 nM DPP1 to start the reaction. Fluorescent reactions were monitored kinetically at 360 nm excitation, 440 nm emission on a Molecular Devices Spectramax XPS reader. The Softmax Pro software of the reader determined the initial velocity of the selected data (the first 3-5 minutes of the reaction), and the best linear regression fit of the initial kinetic data. Final assay conditions were 0.15 nM DPP-1, 10 uM GR-AMC, 50 mM HEPES, pH 7.0, 100 mM NaCl, 2 mM GSH, 0.002% TWEEN 20, 1 uM DTT, 5.0% DMSO. Initial velocity rates were plotted vs. test compound concentration by use of a four-parameter logistics equation (nonlinear regression, sigmoidal dose-response (variable slope), with fixed Hill (1.0) using GraphPad Prism® software for determination of DPP-1 IC50. Within-run assay coefficient of variation (CV) was generally <10%; between-run CV <20%.
Representative compounds of the present invention were tested according to the procedure as described above, with results as listed in Table 2, below. Additionally, Table 2 below lists the measured mass for said representative compounds of the present invention, more particularly the mass of the MH^+ ion.

T1 sequence (P53634 25-463): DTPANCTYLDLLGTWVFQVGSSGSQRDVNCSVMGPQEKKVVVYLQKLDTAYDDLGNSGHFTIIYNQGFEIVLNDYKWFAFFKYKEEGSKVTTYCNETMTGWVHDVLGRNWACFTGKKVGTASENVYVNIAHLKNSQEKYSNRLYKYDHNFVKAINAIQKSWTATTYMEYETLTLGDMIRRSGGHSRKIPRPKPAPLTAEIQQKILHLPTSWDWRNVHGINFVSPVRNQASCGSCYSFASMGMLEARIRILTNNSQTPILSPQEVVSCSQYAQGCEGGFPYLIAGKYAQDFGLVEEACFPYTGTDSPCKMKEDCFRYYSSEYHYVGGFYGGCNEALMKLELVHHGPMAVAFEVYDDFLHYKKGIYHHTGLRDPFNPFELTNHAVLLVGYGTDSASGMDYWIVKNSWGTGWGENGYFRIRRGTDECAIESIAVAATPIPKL

| Structure (SMILES) | IC50 [µM] |
| --- | --- |
| CC[C@H](N)C(=O)NCCCC#Cc1ccc(F)c2ccccc12 [Compound 84] | 7.2 |
| CC[C@H](N)C(=O)NCCCC#Cc1c(F)ccc2ccccc12 [Compound 106] | 6 |
| CC[C@H](N)C(=O)NCCCC#Cc1ccccc1-c1ccccc1 [Compound 61] | 6.8 |
| CC[C@H](N)C(=O)NCCCC#Cc1ccc(OCc2ccccc2)cc1 [Compound 86] | 2.4 |
| C#CC[C@H](N)C(=O)NCCCC#Cc1cccc(O[C@@H]2CCCNC2)c1 [Compound 79, (S)-2-amino-N-(5-(3-((R)-piperidin-3-yloxy)phenyl)pent-4-ynyl)pent-4-ynamide] | 2.9 |
| C#CC[C@H](N)C(=O)NCCCC#Cc1cccc(OC2CCNCC2)c1 [Compound 3, (S)-2-amino-N-(5-(3-(piperidin-4-yloxy)phenyl)pent-4-ynyl)pent-4-ynamide] | 0.39 |
| CC[C@H](N)C(=O)NCCCC#Cc1ccc2sccc2c1 [Compound 60] | 6 |
| CC[C@H](N)C(=O)NCCCC#Cc1ccc(S(C)(=O)=O)cc1 [Compound 56, (S)-2-amino-N-(5-(4-(methylsulfonyl)phenyl)pent-4-ynyl)butanamide] | 18 |
| CC[C@H](N)C(=O)NCCCC#Cc1ccc(C(C)C)cc1 [Compound 95] | 1.2 |
| CC[C@H](N)C(=O)NCCCC#Cc1ccc(C(F)(F)F)cc1 [Compound 58] | 11 |
| C#CC[C@H](N)C(=O)NCCCC#Cc1cccc(-c2ccccc2)c1 [Compound 24] | 0.4 |
| CC[C@H](N)C(=O)NCCCC#Cc1ccccc1O [Compound 104] | 8 |
| N[C@@H](Cn1cccn1)C(=O)NCCCC#Cc1cccc(OC2CCNCC2)c1 [Compound 19, (S)-2-amino-N-(5-(3-(piperidin-4-yloxy)phenyl)pent-4-ynyl)-3-(1H-pyrazol-1-yl)propanamide] | 9.1 |
| C=CCC[C@H](N)C(=O)NCCCC#Cc1cccc(OC2CCNCC2)c1 [Compound 8] | 1.64 |
| CC[C@H](N)C(=O)NCCCC#Cc1ccccc1C(F)(F)F [Compound 74] | 26 |
| CC[C@H](N)C(=O)NCCCC#Cc1cccc(O[C@@H]2CCCNC2)c1 [Compound 78, (S)-2-amino-N-(5-(3-((R)-piperidin-3-yloxy)phenyl)pent-4-ynyl)butanamide] | 3.9 |
| CC[C@H](N)C(=O)NCCCC#Cc1ccc2c(c1)Cc1ccccc1-2 [Compound 101] | 1.7 |
| CC[C@H](N)C(=O)NCCCC#Cc1cc(OC)cc(OC)c1 [Compound 59] | 12 |
| CC[C@H](N)C(=O)NCCCC#Cc1ccc(OC)c(OC)c1 [Compound 57] | 17 |
| CC[C@H](N)C(=O)NCCCC#Cc1ccc(NC(C)=O)cc1 [Compound 100] | 6.3 |
| CC[C@H](N)C(=O)NCCCC#Cc1cncc2ccccc12 [Compound 89] | 7.9 |
| CC[C@H](N)C(=O)NCCCC#Cc1ccc2ccccc2c1 [Compound 73] | 15 |
| CC[C@H](N)C(=O)NCCCC#Cc1ccc2c(c1)OCO2 [Compound 51] | 15 |
| CC[C@H](N)C(=O)NCCCC#Cc1ccc2c(c1)OCCO2 [Compound 97] | 5 |
| N[C@@H](CCO)C(=O)NCCCC#Cc1cccc(OC2CCNCC2)c1 [Compound 15, (S)-2-amino-4-hydroxy-N-(5-(3-(piperidin-4-yloxy)phenyl)pent-4-ynyl)butanamide] | 2.5 |
| CC[C@H](N)C(=O)NCCCC#Cc1cccc(O[C@H]2CCCNC2)c1 [Compound 80, (S)-2-amino-N-(5-(3-((S)-piperidin-3-yloxy)phenyl)pent-4-ynyl)butanamide] | 2.3 |

Now from value to compound:

| IC50 [µM] | Structure (SMILES) |
| --- | --- |
| 0.214 | CC[C@H](N)C(=O)NCCCC#Cc1ccc(OC)cc1 [Compound 40] |
| 1.6 | C#CC[C@H](N)C(=O)NCCCC#Cc1cc(OC)cc(OC2CCNCC2)c1 [Compound 7, (S)-2-amino-N-(5-(3-methoxy-5-(piperidin-4-yloxy)phenyl)pent-4-ynyl)pent-4-ynamide] |
| 5.92 | CCCC[C@H](N)C(=O)NCCCC#Cc1cccc(OC2CCNCC2)c1 [Compound 12] |
| 2.43 | C#CC[C@H](N)C(=O)NCCC#Cc1cccc(OC2CCNCC2)c1 [Compound 6, (S)-2-amino-N-(4-(3-(piperidin-4-yloxy)phenyl)but-3-ynyl)pent-4-ynamide] |
| 12 | N[C@@H](Cc1ccccn1)C(=O)NCCCC#Cc1cccc(OC2CCNCC2)c1 [Compound 90] |
| 1.37 | CC[C@H](N)C(=O)NCCCC#Cc1cccc(OC2CCNCC2)c1 [Compound 9] |
| 5.4 | CC[C@H](N)C(=O)NCCCC#Cc1ccccc1NC(C)=O [Compound 103] |
| 0.35 | CC[C@H](N)C(=O)NCCCC#Cc1ccc(F)c(F)c1 [Compound 39] |
| 5.8 | CC[C@H](N)C(=O)NCCCC#Cc1cccc(OC)c1 [Compound 35] |
| 14 | CC[C@H](N)C(=O)NCCCC#Cc1c(C)c(C)cc(C)c1C [Compound 76] |
| 12 | CC[C@H](N)C(=O)NCCCC#Cc1ccccc1OC [Compound 99] |
| 9.5 | CC[C@H](N)C(=O)NCCCC#Cc1c(C)cc(C)cc1C [Compound 55] |
| 1.7 | CCC[C@H](N)C(=O)NCCCC#Cc1cccc(OC2CCNCC2)c1 [Compound 18, (S)-2-amino-N-(5-(3-(piperidin-4-yloxy)phenyl)pent-4-ynyl)pentanamide] |
| 13 | CC[C@H](N)C(=O)NCCCC#Cc1c(OC)ccc2ccccc12 [Compound 87] |
| 15.3 | N[C@@H](Cc1ccccc1)C(=O)NCCCC#Cc1cccc(OC2CCNCC2)c1 [Compound 1] |
| 5.6 | CC[C@H](N)C(=O)NCCCC#Cc1ccc(-c2ccccc2)cc1 [Compound 81] |
| 0.15 | N[C@@H](Cc1cccs1)C(=O)NCCCC#Cc1cccc(OC2CCNCC2)c1 [Compound 63, (S)-2-amino-N-(5-(3-(piperidin-4-yloxy)phenyl)pent-4-ynyl)-3-(thiophen-2-yl)propanamide] |
| 3.28 | CC[C@H](N)C(=O)NCCCC#Cc1c(C)cccc1C [Compound 49] |

| IC50 [µM] | Structure (SMILES) |
| --- | --- |
| 1.2 | C#CC[C@H](N)C(=O)NCCCC#Cc1cccc(O[C@H]2CCCNC2)c1 [Compound 85, (S)-2-amino-N-(5-(3-((S)-piperidin-3-yloxy)phenyl)pent-4-ynyl)pent-4-ynamide] |
| 7.9 | CC[C@H](N)C(=O)NCCCC#Cc1ccccc1 [Compound 98] |
| 15 | N[C@@H](Cc1cccnc1)C(=O)NCCCC#Cc1cccc(OC2CCNCC2)c1 [Compound 33] |
| 12.8 | CC(C)[C@H](N)C(=O)NCCCC#Cc1cccc(OC2CCNCC2)c1 [Compound 16, (S)-2-amino-3-methyl-N-(5-(3-(piperidin-4-yloxy)phenyl)pent-4-ynyl)butanamide] |
| 0.52 | N[C@@H](Cc1c[nH]cn1)C(=O)NCCCC#Cc1cccc(OC2CCNCC2)c1 [Compound 20] |
| 33 | CC[C@H](N)C(=O)NCCCC#Cc1cc(C)ccc1C [Compound 77] |
| > 100 | CC[C@@H](N)C(=O)NCCCC#Cc1cccc(OC2CCNCC2)c1 [Compound 71] |
| 17 | CC[C@H](N)C(=O)NCCCC#Cc1cccc2cnccc12 [Compound 82] |
| 30 | CC(C)C[C@H](N)C(=O)NCCCC#Cc1cccc(OC2CCNCC2)c1 [Compound 31] |
| 17 | CC[C@@H](N)C(=O)NCCCC#Cc1cccc(OC)c1 [Compound 92] |
| 15.3 | N[C@@H](CC1CC1)C(=O)NCCCC#Cc1cccc(OC2CCNCC2)c1 [Compound 11] |
| 2.53 | CC[C@H](N)C(=O)NCCCC#Cc1cccc2ccccc12 [Compound 41] |
| 6.1 | CC[C@H](N)C(=O)NCCCC#Cc1cccc(F)c1F [Compound 102] |
| 98 | NCCC[C@H](N)C(=O)NCCCC#Cc1cccc(OC2CCNCC2)c1 [Compound 13] |
| 39 | CC[C@H](N)C(=O)NCCCC#Cc1ccccc1C1CCCCC1 [Compound 75] |
| 8.5 | CC[C@H](N)C(=O)NCCCC#Cc1ccc(C)c2ccccc12 [Compound 83] |
| > 10 | CC[C@H](N)C(=O)NCCCC#Cc1c(O)ccc2ccccc12 [Compound 105] |
